One series addresses SARS-CoV-2 M^pro (Severe acute respiratory syndrome coronavirus 2, UniProt P0DTD1). Briefly: biochemical. The conditions noted are these: for IC50: 150 nM enzyme, 30 min pre-incubation at 37°C. In kind it is biochemical.
Series [1] deals with SARS-CoV-2 Omicron BA.5.2. Briefly: Viral load reduction assay in VeroE6-TMPRSS2 cells, BA.5.2. In kind it is cell-based.
Series [2] has as its system SARS-CoV-2. Briefly: In vivo antiviral evaluation in the golden Syrian hamster model.
For series [3] the following is noted: 300 mg/kg/day for three days, body weight recorded 14 days, no virus infection.
The test system of series [4] is SARS-CoV-2 B.1.617.2/Delta. Briefly: Viral load reduction assay in VeroE6-TMPRSS2 cells, Delta. The class given is cell-based.
The next series deals with T1, Cathepsin B (Homo sapiens, UniProt P07858).
T1 construct: purchased BioVision K147-100
Briefly: Selectivity assay, Cathepsin B inhibitor screening kit. The class given is biochemical. The method, then: (§1) The biochemical activity against several common human cysteine proteases was assessed using Cathepsin B inhibitor screening kit (BioVision, K147-100), Cathepsin L inhibitor screening kit (BioVision, K161-100), and Caspase 2 inhibitor drug screening kit (BioVision, K152-100) following the manufacturer’s instructions.

A further series deals with SARS-CoV-2 XBB.1.5. The series is described as follows: Viral load reduction assay in VeroE6-TMPRSS2 cells, XBB.1.5. In kind it is cell-based.
The next series concerns SARS-CoV-2 EG.5.1. The series is described as follows: Viral load reduction assay in VeroE6-TMPRSS2 cells, EG.5.1. The class given is cell-based.
Another series has as its system SARS-CoV-2 B.1.1.7/Alpha. The series is described as follows: Viral load reduction assay in VeroE6-TMPRSS2 cells, Alpha. In kind it is cell-based.
Series [5] concerns SARS-CoV-2 Alpha strain (B.1.1.7). The class given is in vivo, K18-hACE2 mice.
In another series the target is T2, Cathepsin L (Homo sapiens, UniProt P07711).
T2 construct: purchased BioVision K161-100
T2 sequence (P07711 114-333): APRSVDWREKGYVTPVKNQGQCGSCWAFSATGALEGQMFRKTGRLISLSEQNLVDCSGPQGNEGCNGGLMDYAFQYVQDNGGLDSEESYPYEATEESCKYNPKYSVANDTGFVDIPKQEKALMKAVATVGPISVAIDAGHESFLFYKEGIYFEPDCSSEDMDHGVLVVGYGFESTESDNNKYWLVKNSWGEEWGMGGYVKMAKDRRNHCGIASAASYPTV
The series is described as follows: Selectivity assay, Cathepsin L inhibitor screening kit. In kind it is biochemical. As to the method:
as §1

Another series relates to WT SARS-CoV-2 HKU-001a. In kind it is cell-based.
A further series relates to VeroE6-TMPRSS2 cells. Conditions: 48 h, CellTiter-Glo. Background: ATP-based viability assays read luminescence as a measure of living cells.
Series [6] concerns SARS-CoV-2. The series is described as follows: Antiviral activity in human lung Calu-3 cells. The class given is cell-based. The conditions noted are these: Severe acute respiratory syndrome coronavirus 2.
For the next series, the target named is T3, Caspase 2 (Homo sapiens, UniProt P42575).
T3 construct: purchased BioVision K152-100
T3 sequence (P42575 348-452): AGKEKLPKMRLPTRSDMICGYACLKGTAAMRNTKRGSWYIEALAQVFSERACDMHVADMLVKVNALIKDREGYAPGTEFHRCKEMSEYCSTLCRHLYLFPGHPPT
T3 sequence (P42575 170-325): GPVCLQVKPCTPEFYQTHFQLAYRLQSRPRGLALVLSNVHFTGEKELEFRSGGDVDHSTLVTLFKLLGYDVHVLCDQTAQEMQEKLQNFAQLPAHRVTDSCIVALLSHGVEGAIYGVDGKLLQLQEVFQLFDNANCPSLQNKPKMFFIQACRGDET
The series is described as follows: Selectivity assay, Caspase 2 inhibitor drug screening kit. In kind it is biochemical. As to the method: as §1

Another series has as its system SARS-CoV-2 JN.1.1. Briefly: Viral load reduction assay in VeroE6-TMPRSS2 cells, JN.1.1. In kind it is cell-based.

Like-named read-outs stand apart in the source and are kept apart here.

The results in this text go back to article PMC12724327, “Structure-guided discovery of a small molecule inhibitor of SARS-CoV-2 main protease with potent in vitro and in vivo antiviral activities” (Journal of Virology, 2025).

For orientation: IC50 means the point on the concentration scale where inhibition reaches its midpoint. Read a high IC50 as lower potency. At SARS-CoV-2 M^pro (mean ± SEM), `CC(C)(C)OC(=O)N[C@H](C(=O)N[C@@H](Cc1ccccc1)C(=O)N[C@H](C#N)C[C@@H]1CCNC1=O)C(C)(C)C` [H109] registered a half-maximal inhibitory concentration (IC50) of 407 ± 5.6 nM.

Regarding `CC(C)(C)OC(=O)N[C@H](C(=O)N1C[C@H](OC(F)F)C[C@H]1C(=O)N[C@H](C#N)C[C@@H]1CCNC1=O)C(C)(C)C` [H117], inhibition on SARS-CoV-2 M^pro (mean ± SEM) was half-maximal at 151 ± 5.2 nM (IC50).

As to `CC(C)(C)OC(=O)N[C@H](C(=O)N1C[C@H](OC(C)(C)C)C[C@H]1C(=O)N[C@H](C#N)C[C@@H]1CCNC1=O)C(C)(C)C` [H118], inhibition at SARS-CoV-2 M^pro (mean ± SEM) was half-maximal at 310 ± 18.9 nM (IC50).

As to `CN(C(=O)[C@@H](NC(=O)OC(C)(C)C)C(C)(C)C)[C@@H](Cc1ccccc1)C(=O)N[C@H](C#N)C[C@@H]1CCNC1=O` [H119], on SARS-CoV-2 M^pro (mean ± SEM), the IC50 was determined as 625 ± 10.5 nM. For the same compound, on SARS-CoV-2 M^pro (relative to H109), the “decrease in enzyme inhibitory activity” value turned out to be 1.5 fold.

`CC(C)(C)OC(=O)N[C@H](C(=O)N1C[C@H](OC(F)(F)F)C[C@H]1C(=O)N[C@H](C#N)C[C@@H]1CCNC1=O)C(C)(C)C` [H121] gave an IC50 against SARS-CoV-2 M^pro (mean ± SEM) of 68.6 ± 2 nM.

Compound `CC(C)(C)[C@H](NC(=O)C(F)(F)F)C(=O)N1C[C@H](OC(F)F)C[C@H]1C(=O)N[C@H](C#N)C[C@@H]1CCNC1=O` [H122] returned an IC50 at SARS-CoV-2 M^pro (mean ± SEM) of 106 ± 2.8 nM.

`CC(C)(C)[C@H](NC(=O)C1CCC(F)(F)CC1)C(=O)N1C[C@H](OC(F)F)C[C@H]1C(=O)N[C@H](C#N)C[C@@H]1CCNC1=O` [H123] returned a half-maximal inhibitory concentration (IC50) at SARS-CoV-2 M^pro (mean ± SEM) of 860.9 ± 5.1 nM.

In the case of `CC(C)(C)[C@H](NC(=O)C1(F)CC1)C(=O)N1C[C@H](OC(F)F)C[C@H]1C(=O)N[C@H](C#N)C[C@@H]1CCNC1=O` [H124], half-maximal inhibition against SARS-CoV-2 M^pro (mean ± SEM) (IC50) was put at 102 ± 2 nM.

Turning to `CC(C)(C)[C@H](NC(=O)N1CC2(COC2)C1)C(=O)N1C[C@H](OC(F)F)C[C@H]1C(=O)N[C@H](C#N)C[C@@H]1CCNC1=O` [H129], on SARS-CoV-2 M^pro (mean ± SEM), the IC50 came to 924 nM.

As to `CC(C)(C)OC(=O)N[C@H](C(=O)N1C[C@H](OC(F)F)C[C@H]1C(=O)N[C@H](C#N)C[C@@H]1CCNC1=O)C1CCCCC1` [H130], inhibition on SARS-CoV-2 M^pro (mean ± SEM) was half-maximal at 70.1 ± 2.8 nM (IC50).

The compound `CC(C)(C)OC(=O)N[C@H](C(=O)N1C[C@H](OC(F)F)C[C@H]1C(=O)N[C@H](C#N)C[C@@H]1CCNC1=O)C1CCCC1` [H131] gave an IC50 against SARS-CoV-2 M^pro (mean ± SEM) of 79.2 ± 2.1 nM.

Usually EC50 stands for the concentration needed to bring the measured effect to its halfway point. For orientation: Ki means the dissociation constant of the complex between target and ligand, obtained from inhibition or displacement. Consider `N#C[C@H](C[C@@H]1CCNC1=O)NC(=O)[C@@H]1C[C@@H](OC(F)(F)F)CN1C(=O)[C@@H](NC(=O)C1(F)CC1)C1CCCCC1` [H135], for which the “decrease of viral yield in cell culture supernatant” value in [1] was “more than 5 log10”; in [4], “more than 5 log10”; with SARS-CoV-2 XBB.1.5, “more than 5 log10”; with SARS-CoV-2 EG.5.1 it was “more than 5 log10”; in the series with SARS-CoV-2 B.1.1.7/Alpha, “more than 5 log10”; with WT SARS-CoV-2 HKU-001a it was ~ 7 log10. Further, the “decrease of viral yield in cell culture supernatant” value in the series on SARS-CoV-2 JN.1.1 is “more than 5 log10”. Besides, the “decrease of viral RNA copies in lung” value in the series with SARS-CoV-2 [2] (hamster, in vivo) is on record as ~ 0.7 log. For the same compound, the “decrease of viral RNA copies in trachea” value in the series with SARS-CoV-2 [2] (hamster, in vivo) is recorded as ~ 0.65 log. The “live virus titer in hamster lungs” value in the series on SARS-CoV-2 [2] (hamster, in vivo) is “significantly reduced”. Moreover, the “toxicity as reflected by animal body weight change” value in series [3] is listed as “Negligible toxicity”. In addition, the IC50 against Cathepsin B was more than 100000 nM; against Cathepsin L it was more than 100000 nM; against SARS-CoV-2 M^pro (mean ± SEM) it was 12.7 ± 0.1 nM; on Caspase 2, more than 100000 nM. Further, in series [5] (mouse, in vivo), the “body weight of infected mice” value is “less body weight loss”. Further, in series [5] (mouse, in vivo), the delayed death came to 0.6 day/mouse. Also, the fatality rate in series [5] (mouse, in vivo) is 100%. Moreover, the “reduction of SARS-CoV-2 live virus titers in mouse lung” value in series [5] (mouse, in vivo) is “more than 2 logs10”. For the same compound, the “dose up to which no cytotoxicity was found” value with VeroE6-TMPRSS2 cells is on record as not below 400 µM. In the series with SARS-CoV-2 [6], this compound had an EC50 of 122 ± 13 nM. For the same compound, the Ki on SARS-CoV-2 M^pro (read-out: inhibitory constant (Ki)) was 156 nM. In addition, on SARS-CoV-2 M^pro (relative to hit compound H109), the “SARS-CoV-2 M^pro inhibitory potency enhanced” value is recorded as 32 folds.

The compound `N#C[C@H](C[C@@H]1CCNC1=O)NC(=O)[C@@H]1C[C@@H](OC(F)F)CN1C(=O)[C@@H](NC(=O)C1(F)CC1)C1CCCCC1` [H136] showed an IC50 at SARS-CoV-2 M^pro (mean ± SEM) of 43.4 ± 2 nM.

At SARS-CoV-2 M^pro, `CO[C@@H]1C[C@@H](C(=O)N[C@H](C#N)C[C@@H]2CCNC2=O)N(C(=O)[C@@H](NC(=O)OC(C)(C)C)C(C)(C)C)C1` [H138] yielded an IC50 of 2960 nM.

As for `CC(C)(C)OC(=O)N[C@H](C(=O)N1C[C@H](OCc2ccccc2)C[C@H]1C(=O)N[C@H](C#N)C[C@@H]1CCNC1=O)C(C)(C)C` [H139], on SARS-CoV-2 M^pro, the midpoint of inhibition, the IC50, lay at 3410 nM.

The compound `CC(C)(C)OC(=O)N[C@H](C(=O)N1C[C@H](Oc2ccccc2)C[C@H]1C(=O)N[C@H](C#N)C[C@@H]1CCNC1=O)C(C)(C)C` [H140] returned an IC50 against SARS-CoV-2 M^pro of 6770 nM.

On SARS-CoV-2 M^pro, `CC(C)(C)OC(=O)N1C[C@H](OC(F)F)C[C@@H]1C(=O)N1C[C@H](OC(F)F)C[C@H]1C(=O)N[C@H](C#N)C[C@@H]1CCNC1=O` [H141] displayed an IC50 of more than 25000 nM.

`CC(C)(C)[C@H](NC(=O)C(F)(F)F)C(=O)N1C[C@H]2[C@@H]([C@H]1C(=O)N[C@H](C#N)C[C@@H]1CCNC1=O)C2(C)C` [PF-07321332, nirmatrelvir, reference compound]: the “live virus titer in hamster lungs” value with SARS-CoV-2 [2] ([…], H135 300 mg/kg IP QD, nirmatrelvir 300 mg/kg PO BID, three days, P < 0.001 vs DMSO) was “significantly reduced”. For the same compound, the “body weight of infected mice” value in series [5] (150 mg/kg daily intraperitoneal, […]) is “body weight benefits”. The “mice protected from death” value in series [5] (mouse, in vivo) is 40%.
